The results in this text go back to the supplement of paper PMC10627819.

SMILES strings stand for the structures.

What all share (test): Bliss interaction score (quartile over a dose matrix) (fitness difference); higher = more antagonism (negative = synergy)
One test relates to S. aureus DSM 20231. The procedure, abridged:
(§1)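 The Bliss score subtracts expected fitness, the product of the single-drug fitness values, from observed fitness. Fitness is plate-normalised OD595 at entry into stationary phase, relative to the robust no-drug mean and capped at 1, with single-drug fitness inferred from combinations. Summaries are quartiles over technical, biological and donor/recipient replicates.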

The next test deals with B. subtilis 168. The method in brief: as §1
The subject of a further test is S. aureus Newman. The method in brief:
as §1

In another test the test system is S. pneumoniae D39V. The procedure, abridged:
as §1
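Further: first quartile when negative (synergy) and third quartile when positive (antagonism).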

In the case of `CO[C@@H]1[C@@H](OC(N)=O)[C@@H](O)[C@H](Oc2ccc3c(O)c(NC(=O)c4ccc(O)c(CC=C(C)C)c4)c(=O)oc3c2C)OC1(C)C` [Novobiocin] + CO[C@H]1/C=C/O[C@@]2(C)Oc3c(C)c(O)c4c(O)c(c(/C=N/N5CCN(C)CC5)c(O)c4c3C2=O)NC(=O)/C(C)=C\C=C\[C@H](C)[C@H](O)[C@@H](C)[C@@H](O)[C@@H](C)[C@H](OC(C)=O)[C@@H]1C [Rifampicin], the Bliss interaction score was 0.0573 with S. aureus DSM 20231, 0.0681 with B. subtilis 168, 0.0819 with S. aureus Newman and 0.159 in the test on S. pneumoniae D39V.

Regarding `CC[C@H](C)[C@H](N)C1=N[C@H](C(=O)N[C@@H](CC(C)C)C(=O)N[C@H](CCC(=O)O)C(=O)N[C@H](C(=O)N[C@H]2CCCCNC(=O)[C@H](CC(N)=O)NC(=O)[C@@H](CC(=O)O)NC(=O)[C@H](Cc3cnc[nH]3)NC(=O)[C@@H](Cc3ccccc3)NC(=O)[C@H]([C@@H](C)CC)NC(=O)[C@@H](CCCN)NC2=O)[C@@H](C)CC)CS1` [Bacitracin] + CC[C@H]1OC(=O)[C@H](C)[C@@H](O[C@H]2C[C@@](C)(OC)[C@@H](O)[C@H](C)O2)[C@H](C)[C@@H](O[C@@H]2O[C@H](C)C[C@H](N(C)C)[C@H]2O)[C@](C)(OC)C[C@@H](C)C(=O)[C@H](C)[C@@H](O)[C@]1(C)O [Clarithromycin], the Bliss interaction score is -0.0475 in the test with S. aureus DSM 20231 (main component drawn), 0.0539 in the test with B. subtilis 168 (main component drawn), -0.0869 with S. aureus Newman (main component drawn) and -0.0454 in the test on S. pneumoniae D39V (main component drawn).

With `CC[C@H]1OC(=O)[C@H](C)[C@@H](O[C@H]2C[C@@](C)(OC)[C@@H](O)[C@H](C)O2)[C@H](C)[C@@H](O[C@@H]2O[C@H](C)C[C@H](N(C)C)[C@H]2O)[C@](C)(O)C[C@@H](C)C(=O)[C@H](C)[C@@H](O)[C@]1(C)O` [Erythromycin] + CC(C1CCC(C(O1)OC2C(CC(C(C2O)OC3C(C(C(CO3)(C)O)NC)O)N)N)N)NC [Gentamicin], the Bliss interaction score turned out to be 0.0847 with S. aureus DSM 20231 (main component drawn), 0.118 with B. subtilis 168 (main component drawn), 0.0427 in the test on S. aureus Newman (main component drawn) and 0.0656 in the test on S. pneumoniae D39V (main component drawn).

Turning to `CN[C@@H]1[C@H](O[C@H]2[C@H](O[C@H]3[C@H](O)[C@@H](O)[C@H](N=C(N)N)[C@@H](O)[C@@H]3N=C(N)N)O[C@@H](C)[C@]2(O)C=O)O[C@@H](CO)[C@H](O)[C@H]1O` [Streptomycin] + CC[C@H]1OC(=O)[C@H](C)C(=O)[C@H](C)[C@@H](O[C@@H]2O[C@H](C)C[C@H](N(C)C)[C@H]2O)[C@](C)(OC)C[C@@H](C)C(=O)[C@H](C)[C@H]2N(CCCCn3cnc(-c4cccnc4)c3)C(=O)O[C@]12C [Telithromycin], the Bliss interaction score in the test on S. aureus DSM 20231 is 0.0793; with B. subtilis 168, 0.0819; with S. aureus Newman, -0.109; with S. pneumoniae D39V, -0.0487.

Take `CN[C@H](CC(C)C)C(=O)N[C@H]1C(=O)N[C@@H](CC(N)=O)C(=O)N[C@H]2C(=O)N[C@H]3C(=O)N[C@H](C(=O)N[C@H](C(=O)O)c4cc(O)cc(O)c4-c4cc3ccc4O)[C@H](O[C@H]3C[C@](C)(N)[C@@H](O)[C@H](C)O3)c3ccc(c(Cl)c3)Oc3cc2cc(c3O[C@@H]2O[C@H](CO)[C@@H](O)[C@H](O)[C@H]2O[C@H]2C[C@](C)(NCc3ccc(-c4ccc(Cl)cc4)cc3)[C@@H](O)[C@H](C)O2)Oc2ccc(cc2Cl)[C@H]1O` [Oritavancin] + CN1C2=CC=CC=C2N=C3C1=CC=CC3=O [Pyocyanin]: the Bliss interaction score in the test on S. aureus DSM 20231 is -0.047; with B. subtilis 168, -0.0238; with S. aureus Newman, -0.105; in the test with S. pneumoniae D39V, -0.0208.

Consider `CO[C@H]1/C=C/O[C@@]2(C)Oc3c(C)c(O)c4c(O)c(c(/C=N/N5CCN(C)CC5)c(O)c4c3C2=O)NC(=O)/C(C)=C\C=C\[C@H](C)[C@H](O)[C@@H](C)[C@@H](O)[C@@H](C)[C@H](OC(C)=O)[C@@H]1C` [Rifampicin] + CC[C@H]1OC(=O)[C@H](C)C(=O)[C@H](C)[C@@H](O[C@@H]2O[C@H](C)C[C@H](N(C)C)[C@H]2O)[C@](C)(OC)C[C@@H](C)C(=O)[C@H](C)[C@H]2N(CCCCn3cnc(-c4cccnc4)c3)C(=O)O[C@]12C [Telithromycin], for which the Bliss interaction score in the test on S. aureus DSM 20231 was 0.0559; with B. subtilis 168, 0.0808; with S. aureus Newman, 0.0171; in the test on S. pneumoniae D39V, -0.157.

In the case of `CN[C@H](CC(C)C)C(=O)N[C@H]1C(=O)N[C@@H](CC(N)=O)C(=O)N[C@H]2C(=O)N[C@H]3C(=O)N[C@H](C(=O)N[C@H](C(=O)O)c4cc(O)cc(O)c4-c4cc3ccc4O)[C@H](O[C@H]3C[C@](C)(N)[C@@H](O)[C@H](C)O3)c3ccc(c(Cl)c3)Oc3cc2cc(c3O[C@@H]2O[C@H](CO)[C@@H](O)[C@H](O)[C@H]2O[C@H]2C[C@](C)(NCc3ccc(-c4ccc(Cl)cc4)cc3)[C@@H](O)[C@H](C)O2)Oc2ccc(cc2Cl)[C@H]1O` [Oritavancin] + CN(C)c1cc(NC(=O)CNC(C)(C)C)c(O)c2c1C[C@H]1C[C@H]3[C@H](N(C)C)C(O)=C(C(N)=O)C(=O)[C@@]3(O)C(O)=C1C2=O [Tigecycline], the Bliss interaction score with S. aureus DSM 20231 is -0.0305; in the test with B. subtilis 168 it was -0.0328; in the test with S. aureus Newman, -0.0634; in the test with S. pneumoniae D39V, 0.0458.

For the compound `CC[C@H]1OC(=O)[C@H](C)[C@@H](O[C@H]2C[C@@](C)(OC)[C@@H](O)[C@H](C)O2)[C@H](C)[C@@H](O[C@@H]2O[C@H](C)C[C@H](N(C)C)[C@H]2O)[C@](C)(O)C[C@@H](C)C(=O)[C@H](C)[C@@H](O)[C@]1(C)O` [Erythromycin] + CC(=O)O[C@H]1C[C@@]2(C)[C@@H](C[C@@H](O)[C@H]3[C@@]4(C)CC[C@@H](O)[C@@H](C)[C@@H]4CC[C@@]32C)/C1=C(\CCC=C(C)C)C(=O)O [Fusidic acid], the Bliss interaction score in the test with S. aureus DSM 20231 is 0.0374; in the test with B. subtilis 168, -0.057; in the test with S. aureus Newman, -0.0241; in the test with S. pneumoniae D39V it was -0.1.

In the case of `CC[C@H](C)[C@H](N)C1=N[C@H](C(=O)N[C@@H](CC(C)C)C(=O)N[C@H](CCC(=O)O)C(=O)N[C@H](C(=O)N[C@H]2CCCCNC(=O)[C@H](CC(N)=O)NC(=O)[C@@H](CC(=O)O)NC(=O)[C@H](Cc3cnc[nH]3)NC(=O)[C@@H](Cc3ccccc3)NC(=O)[C@H]([C@@H](C)CC)NC(=O)[C@@H](CCCN)NC2=O)[C@@H](C)CC)CS1` [Bacitracin] + O=C(O)[C@H]1/C(=C/CO)O[C@@H]2CC(=O)N21 [Clavulanic], the Bliss interaction score with S. aureus DSM 20231 (main component drawn) is -0.0375; in the test with B. subtilis 168 (main component drawn), 0.107; in the test with S. aureus Newman (main component drawn), 0.241; in the test with S. pneumoniae D39V (main component drawn), -0.0867.
